Source: patent US8445217B2, “Free solution measurement of molecular interactions by backscattering interferometry” (Vanderbilt University, priority 2007, dated 2013)
Like-named read-outs stand apart in the source and are kept apart here.

Tests used:
[1] = molecular target: T1, Calmodulin (CaM) (Homo sapiens, UniProt P0DP23); assay: BSI free-solution CaM-Ca^2+ interaction; format: binding; conditions: for Kd: 5 μM CaM, pH 7.5, 25° C.
T1 construct: purchased Sigma, St. Louis, Mo
Protocol: Homogeneous, label-free CaM-Ca^2+ interactions are quantified with BSI by real-time monitoring the sequential reactions of a constant concentration of 5 μM CaM with Ca^2+ solutions increasing in concentrations from 12.5-100 μM (FIG. 24A). Here CaM was buffered at pH=7.5 with 0.1M HEPES and 0.1M KCl, with its concentration held constant at 5 μM. In this aspect, the CaM solution contained a small amount of EGTA to chelate any free Ca^2+. The reactions were carried out in the same microfluidic chip molded in PDMS with the temperature fixed at 25° C. A 5 μM CaM solution and a 100 μM Ca^2+ solution both consisting of excess EGTA (i.e., 400 μM), served as the control.
Kinetic analysis using a single exponential gives rise to a plot of observed rates versus Ca^2+ concentration that is linear. A least squares analysis of the linear plot yields the slope, intercept, and their respective errors. […] Without wishing to be bound by theory, it is believed that the disparity in these two values was due likely to a less than optimal approach to fitting the kinetic data and the RI background present from unreacted ligand, particularly at high concentrations.
These experiments were conducted at 25±0.01° C. maintained by a thermoelectric temperature controller (MELCOR, Trenton, N.J.) coupled to a Peltier device. Binding experiments were monitored in real-time at frequencies ca. 50-100 Hz.
CaM was buffered at a pH=7.5 with 0.1M HEPES and 0.1M KCl with its concentration held constant throughout the experiment at 5 μM. The CaM solution contained a small amount of EGTA to chelate any free Ca^2+. BSI monitored, in real-time, the sequential reactions of 5 μM CaM with concentrations of Ca^2+ ranging from 12.5-100 μM.

[2] = molecular target: T1, Calmodulin (CaM); conditions: literature; read-out: published Kd values, calmodulin-calcium ion interaction; cited from earlier work

[Ca+2] [Ca^2+]
control: change in signal above that observed in the absence of excess EGTA at equivalent concentrations ([1]; 5 μM CaM and 100 μM Ca^2+, both with excess EGTA (400 μM)): < 3%
Kd ([1]; 12.5-100 μM Ca^2+, read-out: Kd CaM-Ca^2+, kinetic analysis (observed rates versus Ca^2+ concentration)): 3.36 µM
Kd ([1]; read-out: Kd CaM-Ca^2+, steady-state values analysed by Prism): 17.8 µM
Kd [2]: 1 to 10 µM
